From US10703757B2, “Compounds and methods for CDK8 modulation and indications therefor” (Plexxikon Inc., priority 2016, dated 2020)

Tested on: CDK8 (phosphorylation of STAT1 at serine 727 in A549 cells)
Assay: Cell based Phospho-STAT1 assay (IFNγ-stimulated A549 cells, AlphaLISA)
Details: Homo sapiens, A549, A549 cells, phospho-STAT1 after IFNγ stimulation
Method: Determine Inhibitor Activity Against CDK8 in Cell Based Phospho-STAT1 Assay
This assay measures the phosphorylation of the CDK8 substrate STAT1 following Interferon-gamma (IFNγ) stimulation^1. The lung carcinoma cell line A549 is seeded in a 96 well plate in 50 μL of culture media at 5×10^4 cells/well and incubated at 37° C. overnight. Serial dilutions of compounds (in total volume of 50 μL culture media) are added to the cells and incubated at 37° C. for one hour. Human IFNγ (R&D Systems) is added to the cells at a 10 ng/mL final concentration. 4 wells containing DMSO treated cells stimulated with IFNγ serve as high controls and 4 wells containing DMSO treated unstimulated cells serve as low controls. After 30 minute IFNγ stimulation at 37° C., the culture media is removed and 50 μL of 1×AlphaLISA lysis buffer (PerkinElmer GA, USA) is added to each well. 5 μL cell lysate is transferred to a 384 well AlphaPlate (PerkinElmer GA, USA) and 5 μL containing 0.156 nM Phospho-STAT1 (Ser727) rabbit monoclonal antibody (Cell Signaling Technology), 0.156 nM Mouse Anti-STAT1 antibody (BD Transduction Laboratories), and 10 μg/mL Anti-rabbit IgG AlphaLISA acceptor beads (PerkinElmer GA, USA) diluted in 1× AlphaLISA immunoassay buffer (PerkinElmer GA, USA) is added to the cell lysates and incubated at room temperature for 90 minutes. 5 μL Anti-Mouse IgG Alpha donor beads diluted in 1× AlphaLISA immunoassay buffer (PerkinElmer GA, USA) is added to the reaction mixture and incubated at room temperature for 90 minutes. Upon excitation of these beads with laser light at 680 nm, singlet oxygen is produced. This singlet oxygen is rapidly quenched, unless the AlphaLISA Anti-Rabbit IgG acceptor beads are in close proximity, in which case a proximity signal can be measured at […]. In the presence of cellular CDK8 catalytic activity, there is a very strong proximity signal. Selective CDK8 inhibitors affect a decrease in this proximity signal through a decrease in phosphorylation of STAT1 at serine 727. The percentage inhibition at individual concentrations relative to high and low controls is calculated. The data are analyzed by using nonlinear regression to generate IC50 values.

Row | Structure (SMILES) | IC50
1 | Cn1cc(C#Cc2cnc3cccc(N4CCC(C#N)CC4)n23)cn1 [Compound P-0409, 1-(3-((1-methyl-1H-pyrazol-4-yl)ethynyl)imidazo[1,2-a]pyridin-5-yl)piperidine-4-carbonitrile] | 100 to 1000 nM
2 | Cn1cc(-c2ccc(-c3cnc4cccc(N5CCNCC5)n34)cc2)cn1 [Compound P-0393, 3-(4-(1-methyl-1H-pyrazol-4-yl)phenyl)-5-(piperazin-1-yl)imidazo[1,2-a]pyridine] | 1000 to 10000 nM
3 | Cn1cc(-c2ccc(-c3cnn4cccc(-c5cnn(C(=O)OC(C)(C)C)c5)c34)cc2)cn1 [Compound P-0431, tert-butyl 4-(3-(4-(1-methyl-1H-pyrazol-4-yl)phenyl)pyrazolo[1,5-a]pyridin-4-yl)-1H-pyrazole-1-carboxylate] | 1000 to 10000 nM
4 | CNC(=O)C1CCN(c2cccc3ncc(-c4ccc(-c5cnn(C)c5)cc4)n23)CC1 [Compound P-0380, N-methyl-1-(3-(4-(1-methyl-1H-pyrazol-4-yl)phenyl)imidazo[1,2-a]pyridin-5-yl)piperidine-4-carboxamide] | 1000 to 10000 nM
5 | Cn1ncc2cc(-c3cnn4cccc(N5CCC(C)(C#N)CC5)c34)ccc21 [Compound P-0403, 4-methyl-1-(3-(1-methyl-1H-indazol-5-yl)pyrazolo[1,5-a]pyridin-4-yl)piperidine-4-carbonitrile] | 0.1 to 100 nM
6 | FC(F)n1cc(-c2ccc(-c3cnc4cccc(OC5CCSCC5)n34)cc2)cn1 [Compound P-0348, 3-(4-(1-(difluoromethyl)-1H-pyrazol-4-yl)phenyl)-5-((tetrahydro-2H-thiopyran-4-yl)oxy)imidazo[1,2-a]pyridine] | 1000 to 10000 nM
7 | N#CC1CCN(c2cccc3ncc(-c4ccc(-c5cnn(C(F)F)c5)cc4)n23)CC1 [Compound P-0440, 1-(3-(4-(1-(difluoromethyl)-1H-pyrazol-4-yl)phenyl)imidazo[1,2-a]pyridin-5-yl)piperidine-4-carbonitrile] | 0.1 to 100 nM
8 | Cn1ncc2cc(-c3cnc4[nH]ccc4c3C#CC(C)(C)O)ccc21 [Compound P-0343, 2-methyl-4-(5-(1-methyl-1H-indazol-5-yl)-1H-pyrrolo[2,3-b]pyridin-4-yl)but-3-yn-2-ol] | 100 to 1000 nM
9 | COC(=O)CC1CCN(c2cccc3ncc(C#Cc4cnn(C)c4)n23)CC1 [Compound P-0312, methyl 2-(1-(3-((1-methyl-1H-pyrazol-4-yl)ethynyl)imidazo[1,2-a]pyridin-5-yl)piperidin-4-yl)acetate] | 1000 to 10000 nM
10 | CNC(=O)C1CC=C(c2cccn3ncc(-c4ccc(-c5cnn(C)c5)cc4)c23)CC1 (stereo not shown) [Compound P-0442, N-methyl-4-(3-(4-(1-methyl-1H-pyrazol-4-yl)phenyl)pyrazolo[1,5-a]pyridin-4-yl)cyclohex-3-ene-1-carboxamide] | 0.1 to 100 nM
11 | Cn1cc(-c2ccc(-c3cnc4cccc(OC5CCC(F)(F)CC5)n34)cc2)cn1 [Compound P-0372, 5-((4,4-difluorocyclohexyl)oxy)-3-(4-(1-methyl-1H-pyrazol-4-yl)phenyl)imidazo[1,2-a]pyridine] | 1000 to 10000 nM
12 | Cc1noc(-c2ccc(-c3cnn4cccc(N5CCC(C#N)(c6ccccn6)CC5)c34)cc2)n1 [Compound P-0351, 1-(3-(4-(3-methyl-1,2,4-oxadiazol-5-yl)phenyl)pyrazolo[1,5-a]pyridin-4-yl)-4-(pyridin-2-yl)piperidine-4-carbonitrile] | 100 to 1000 nM
13 | Cn1cc(-c2ccc(-c3cnc4cccc(NCc5ccccc5)n34)cc2)cn1 [Compound P-0389, N-benzyl-3-(4-(1-methyl-1H-pyrazol-4-yl)phenyl)imidazo[1,2-a]pyridin-5-amine] | 1000 to 10000 nM
14 | Cn1cc(-c2ccc(-c3cnn4cccc(C#CC(O)c5ccccc5)c34)cc2)cn1 (stereo not shown) [Compound P-0426, 3-[3-[4-(1-methylpyrazol-4-yl)phenyl]pyrazolo[1,5-a]pyridin-4-yl]-1-phenyl-prop-2-yn-1-ol] | 0.1 to 100 nM
15 | CN1CCC(Oc2cccc3ncc(-c4ccc(-c5cnn(C)c5)cc4)n23)CC1 [Compound P-0439, 3-(4-(1-methyl-1H-pyrazol-4-yl)phenyl)-5-((1-methylpiperidin-4-yl)oxy)imidazo[1,2-a]pyridine] | 0.1 to 100 nM
16 | Cn1cc(-c2ccc(-c3cnn4cccc(C#CC5(O)CCNCC5)c34)cc2)cn1 [Compound P-0338, 4-((3-(4-(1-methyl-1H-pyrazol-4-yl)phenyl)pyrazolo[1,5-a]pyridin-4-yl)ethynyl)piperidin-4-ol] | 100 to 1000 nM

Row | Structure (SMILES) | IC50
17 | CCC(O)(C#Cc1cccn2ncc(-c3ccc(-c4cnn(C)c4)cc3)c12)CC [Compound P-0373, 3-ethyl-1-(3-(4-(1-methyl-1H-pyrazol-4-yl)phenyl)pyrazolo[1,5-a]pyridin-4-yl)pent-1-yn-3-ol] | 100 to 1000 nM
18 | CCOC(=O)C1CCN(c2cccc3ncc(-c4ccc(-c5cnn(C)c5)cc4)n23)CC1 [Compound P-0447, ethyl 1-(3-(4-(1-methyl-1H-pyrazol-4-yl)phenyl)imidazo[1,2-a]pyridin-5-yl)piperidine-4-carboxylate] | 0.1 to 100 nM
19 | Cn1cc(-c2ccc(-c3cnc4cccc(N5CCC(C(N)=O)C5)n34)cc2)cn1 (stereo not shown) [Compound P-0378, 1-(3-(4-(1-methyl-1H-pyrazol-4-yl)phenyl)imidazo[1,2-a]pyridin-5-yl)pyrrolidine-3-carboxamide] | 100 to 1000 nM
20 | Cc1nn(C)c2ccc(-c3cnc4[nH]ccc4c3C3=CCC(C#N)CC3)cc12 (stereo not shown) [Compound P-0342, 4-(5-(1,3-dimethyl-1H-indazol-5-yl)-1H-pyrrolo[2,3-b]pyridin-4-yl)cyclohex-3-ene-1-carbonitrile] | 0.1 to 100 nM
21 | O=S1(=O)CCC(Oc2cccc3ncc(-c4ccc(-c5cnn(C(F)F)c5)cc4)n23)CC1 [Compound P-0349, 4-((3-(4-(1-(difluoromethyl)-1H-pyrazol-4-yl)phenyl)imidazo[1,2-a]pyradin-5-yl)oxy)tetrahydro-2H-thiopyran 1,1-dioxide] | 100 to 1000 nM
22 | Cn1cc(Nc2ncc(-c3cnc4cccc(N5CCC6(CC5)C(=O)Nc5ccccc56)n34)cn2)cn1 [Compound P-0453, 1′-(3-(2-((1-methyl-1H-pyrazol-4-yl)amino)pyrimidin-5-yl)imidazo[1,2-a]pyridin-5-yl)spiro[indoline-3,4′-piperidin]-2-one] | 100 to 1000 nM
23 | CC1(C#N)CCN(c2cccn3ncc(-c4ccc(-c5cnn(C(F)F)c5)cc4)c23)CC1 [Compound P-0404, 1-[3-[4-[1-(difluoromethyl)pyrazol-4-yl]phenyl]pyrazolo[1,5-a]pyridin-4-yl]-4-methyl-piperidine-4-carbonitrile] | 0.1 to 100 nM
24 | CCOC(=O)C1CC=C(c2cccc3ncc(-c4ccc(-c5cnn(C)c5)cc4)n23)CC1 (stereo not shown) [Compound P-0420, ethyl 4-(3-(4-(1-methyl-1H-pyrazol-4-yl)phenyl)imidazo[1,2-a]pyridin-5-yl)cyclohex-3-ene-1-carboxylate] | 1000 to 10000 nM
25 | CN1CCN(c2cccc3ncc(-c4ccc(-c5cnn(C)c5)cc4)n23)CC1 [Compound P-0394, 3-(4-(1-methyl-1H-pyrazol-4-yl)phenyl)-5-(4-methylpiperazin-1-yl)imidazo[1,2-a]pyridine] | 100 to 1000 nM
26 | Cn1cc(-c2ccc(-c3cnn4cccc(C5CCC(C#N)CC5)c34)cc2)cn1 (stereo not shown) [Compound P-0347, 4-(3-(4-(1-methyl-1H-pyrazol-4-yl)phenyl)pyrazolo[1,5-a]pyridin-4-yl)cyclohexane-1-carbonitrile] | 100 to 1000 nM
27 | Cn1ncc2cc(-c3cnn4cccc(C#CC(C)(C)O)c34)ccc21 [Compound P-0414, 2-methyl-4-(3-(1-methyl-1H-indazol-5-yl)pyrazolo(1,5-a]pyridin-4-yl)but-3-yn-2-ol] | 0.1 to 100 nM
28 | CS(=O)(=O)N1CCC(Oc2cccc3ncc(-c4ccc(-c5cnn(C(F)F)c5)cc4)n23)CC1 [Compound P-0298, 3-(4-(1-(difluoromethyl)-1H-pyrazol-4-yl)phenyl)-5-((1-(methylsulfonyl)piperidin-4-yl)oxy)imidazo[1,2-a]pyridine] | 1000 to 10000 nM
29 | NC(=O)C1CC=C(c2cccc3ncc(-c4ccc(OCCN5CCCCC5)cc4)n23)CC1 (stereo not shown) [Compound P-0369, 4-(3-(4-(2-(piperidin-1-yl)ethoxy)phenyl)imidazo[1,2-a]pyridin-5-yl)cyclohex-3-ene-1-carboxamide] | 1000 to 10000 nM
30 | Cn1cc(-c2ccc(-c3cnc4cccc(NCC5CCOCC5)n34)cc2)cn1 [Compound P-0391, 3-(4-(1-methyl-1H-pyrazol-4-yl)phenyl)-N-((tetrahydro-2H-pyran-4-yl)methyl)imidazo[1,2-a]pyridin-5-amine] | 100 to 1000 nM
31 | Cn1cc(-c2ccc(-c3c[nH]c4ncc(Br)c(N5CCC(C#N)CC5)c34)cc2)cn1 [Compound P-0432, 1-[5-bromo-3-[4-(1-methylpyrazol-4-yl)phenyl]-H-pyrrolo[2,3-b]pyridin-4-yl]piperidine-4-carbonitrile] | 1000 to 10000 nM
